From patent US11590116B2 (THERAVANCE BIOPHARMA R&D IP, LLC, priority 2019, dated 2023) come the findings set out here.

A value given as a limit tells only on which side of the number the result lay.

In experiment [1] the target is T1, recombinant human ALK5 (TGF-βR1) protein (Homo sapiens, UniProt P36897).
T1 construct: purchased Life Technologies PR9075A
T1 sequence (P36897 34-503): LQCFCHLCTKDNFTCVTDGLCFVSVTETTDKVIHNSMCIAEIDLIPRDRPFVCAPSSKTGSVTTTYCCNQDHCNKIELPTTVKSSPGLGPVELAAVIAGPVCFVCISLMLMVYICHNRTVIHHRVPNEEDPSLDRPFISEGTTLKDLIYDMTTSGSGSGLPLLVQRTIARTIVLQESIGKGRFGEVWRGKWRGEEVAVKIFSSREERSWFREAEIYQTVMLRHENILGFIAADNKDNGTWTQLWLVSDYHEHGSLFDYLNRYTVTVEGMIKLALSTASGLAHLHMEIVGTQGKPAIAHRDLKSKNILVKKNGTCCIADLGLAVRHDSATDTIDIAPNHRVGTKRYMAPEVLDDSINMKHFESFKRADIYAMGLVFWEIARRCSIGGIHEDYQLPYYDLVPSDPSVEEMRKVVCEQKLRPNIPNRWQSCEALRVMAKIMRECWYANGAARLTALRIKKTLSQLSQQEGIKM
As to the kind of experiment: Biochemical ALK5 (TGF-βR1) assay to measure pKi (LANCE Ultra ULight kinase assay). The following applies: apparent pKi from pIC50 by Cheng-Prusoff, read-out: ALK5 pKi (converted). The method in brief:
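After a 60 min room-temperature preincubation of ALK5 with compound, phosphorylation proceeds 60 min at 37 °C on ATP addition (125 μM as 5× stock). Detection: Eu-labelled phospho-Thr1342 Topo IIα antibody in EDTA buffer, pH 7.0; emission 665 nm.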
A general note: In TR-FRET formats the signal depends on donor and acceptor labels being close together.

The test system of experiment [2] is TGF-β-stimulated SMAD3 phosphorylation in BEAS-2B cells. As to the kind of experiment: Cellular ALK5 potency assay, inhibition of TGF-β stimulated pSMAD3 formation in BEAS-2B cells. Format: cell-based. As to conditions: Homo sapiens; inhibition of TGF-β stimulated pSMAD3 formation, BEAS-2B cells; read-out: BEAS2B pIC50 (converted). How it is done: The potency of compounds of the present disclosure for inhibition of TGF-β-stimulated SMAD3 phosphorylation was measured in BEAS-2B cells, a human lung epithelial cell line. TGF-β signals through activin receptor-like kinase 5 (ALK5) immediately prior to SMAD3 phosphorylation.
BEAS-2B cells were grown using 50% DMEM (Life Technologies) and 50% F-12 (Life Technologies) media, supplemented with 10% Fetal Bovine Serum (ATCC), 25 mM HEPES (Life Technologies), and 1× Pen-Strep (Life Technologies). Cells were cultured in a humidified incubator set at 37° C., 5% CO2, and trypsonized using 0.25% Trypsin with 0.5% polyvinylpyrrolidone (PVP).
For the assay, BEAS-2B cells were seeded at 7,500 cells/well (25 μL/well) in a 384-well plate and cultured overnight. Before dosing, growth media was aspirated and the wells were rinsed with HBSS Buffer (HBSS with Calcium and Magnesium, Life Technologies) supplemented with 25 mM HEPES (Life Technologies) and 1% Bovine Serum Albumin (Roche). Compounds were serially diluted in DMSO, then further diluted with supplemented HBSS Buffer (50 μL/well) to create a compound plate 3× of the final assay concentration, at 0.3% DMSO. The diluted compounds were then added to the cells (8 μL/well) and incubated at 37° C., 5% CO2 for 1 hour. After the compound incubation, TGF-β (R&D Systems) reconstituted in supplemented HBSS Buffer was added to the cells ([…], final concentration 10 ng/mL) and incubated for a further 30 minutes, after which the cells were immediately lysed with AlphaLISA lysis buffer (PerkinElmer). AlphaLISA Acceptor and Detector beads (PerkinElmer) were added 2 hours apart, then incubated overnight to be read the next day. The potency of the compound was determined through analysis of dose-dependent quantified changes in pSMAD3 signal from baseline (non-compound treated TGF-β stimulated cells). Data are expressed as pIC50 (negative decadic logarithm IC50) values.

For `COC(=O)C1CN(CCNc2cnc3ccc(-c4c[nH]nc4-c4cccc(C)n4)nc3c2)CCN1` (centres unmarked) [Compound 137, methyl 4-[2-[[6-[3-(6-methyl-2-pyridyl)-1H-pyrazol-4-yl]-1,5-naphthyridin-3-yl]amino]ethyl]piperazine-2-carboxylate], in experiment [1], the Ki is 0.0398 to 0.316 nM. The IC50 in experiment [2] was 1580 to 10000 nM.

`Cc1cccc(-c2n[nH]cc2-c2ccc3ncc(N)cc3n2)n1` [Compound 300, 6-[3-(6-methyl-2-pyridyl)-1H-pyrazol-4-yl]-1,5-naphthyridin-3-amine]: the Ki in experiment [1] was less than 0.0316 nM. Further, in experiment [2], the IC50 is less than 20 nM.

As for `Cc1cccc(-c2[nH]cnc2-c2ccc3ncc(-c4ccnc(C(=O)OCC5CNC5)c4)cc3c2)n1` [Compound 1086, azetidin-3-ylmethyl 4-[6-[5-(6-methyl-2-pyridyl)-1H-imidazol-4-yl]-3-quinolyl]pyridine-2-carboxylate], the Ki in experiment [1] is 0.0398 to 0.316 nM. Moreover, the IC50 in experiment [2] was 200 to 1260 nM.

Take `Cc1cccc(-c2nnn(C)c2-c2ccc3ncc(N4CCNCC4)cc3c2)n1` [Compound 86, 6-[3-methyl-5-(6-methyl-2-pyridyl)triazol-4-yl]-3-piperazin-1-yl-quinoline]: the Ki in experiment [1] was 0.398 to 3.16 nM. Moreover, in experiment [2], the IC50 is 25.1 to 158 nM.

Take `Cc1cccc(-c2n[nH]cc2-c2ccc3ncc(CNCCN4CCOCC4)cc3n2)n1` [Compound 633, N-[[6-[3-(6-methyl-2-pyridyl)-1H-pyrazol-4-yl]-1,5-naphthyridin-3-yl]methyl]-2-morpholino-ethanamine]: the Ki in experiment [1] is 0.398 to 3.16 nM. Moreover, the IC50 in experiment [2] is 25.1 to 158 nM.

As to `Cc1cccc(-c2[nH]cnc2-c2ccc3ncc(C4=CCN(C(=O)C5CCCNC5)CC4)cc3c2)n1` (centres unmarked) [Compound 1150, [4-[6-[5-(6-methyl-2-pyridyl)-1H-imidazol-4-yl]-3-quinolyl]-3,6-dihydro-2H-pyridin-1-yl]-(3-piperidyl)methanone], the Ki in experiment [1] was 0.0398 to 0.316 nM. Also, the IC50 in experiment [2] is 25.1 to 158 nM.

With `CCOC(=O)CCc1ccnc2ccc(-c3c[nH]nc3-c3cccc(C)n3)nc12` [Compound 814, ethyl 3-[6-[3-(6-methyl-2-pyridyl)-1H-pyrazol-4-yl]-1,5-naphthyridin-4-yl]propanoate], the Ki in experiment [1] was 0.0398 to 0.316 nM. Besides, the IC50 in experiment [2] was 25.1 to 158 nM.

With `Cc1cccc(-c2[nH]cnc2-c2ccc3ncc(N4CC[C@@H](N)C4)cc3c2)n1` [Compound 13, (3R)-1-[6-[5-(6-methyl-2-pyridyl)-1H-imidazol-4-yl]-3-quinolyl]pyrrolidin-3-amine], in experiment [1], the Ki is 0.0398 to 0.316 nM. Moreover, the IC50 in experiment [2] was less than 20 nM.

As to `Cc1cccc(-c2n[nH]cc2-c2ccc3ncc(-c4nc5n(n4)CCNC5)cc3c2)n1` [Compound 315, 6-[3-(6-methyl-2-pyridyl)-1H-pyrazol-4-yl]-3-(5,6,7,8-tetrahydro-[1,2,4]triazolo[1,5-a]pyrazin-2-yl)quinoline], the Ki in experiment [1] was 0.0398 to 0.316 nM. Besides, the IC50 in experiment [2] is 25.1 to 158 nM.

For `Cc1cccc(-c2[nH]cnc2-c2ccc3ncc(NCCN4CCC5(CCNC5)C4)cc3c2)n1` (centres unmarked) [Compound 711, N-[2-(2,7-diazaspiro[4.4]nonan-2-yl)ethyl]-6-[5-(6-methyl-2-pyridyl)-1H-imidazol-4-yl]quinolin-3-amine], the Ki in experiment [1] is 0.0398 to 0.316 nM. The IC50 in experiment [2] was 200 to 1260 nM.

As for `CNCCn1cc(-c2cnc3ccc(-c4nc[nH]c4-c4cccc(C)n4)nc3c2)cn1` [Compound 408, N-methyl-2-[4-[6-[5-(6-methyl-2-pyridyl)-1H-imidazol-4-yl]-1,5-naphthyridin-3-yl]pyrazol-1-yl]ethanamine], in experiment [1], the Ki is 0.0398 to 0.316 nM. The IC50 in experiment [2] was 25.1 to 158 nM.

For `Cc1cccc(-c2n[nH]cc2-c2ccc3ncc(N4CCn5nc(C6=CCC(N)CC6)nc5C4)cc3n2)n1` (centres unmarked) [Compound 268, 4-[7-[6-[3-(6-methyl-2-pyridyl)-1H-pyrazol-4-yl]-1,5-naphthyridin-3-yl]-6,8-dihydro-5H-[1,2,4]triazolo[1,5-a]pyrazin-2-yl]cyclohex-3-en-1-amine], the Ki in experiment [1] is 0.0398 to 0.316 nM. In experiment [2], the IC50 is 200 to 1260 nM.

On to `Cc1cccc(-c2[nH]cnc2-c2ccc3ncc(C(=O)OCCN4CC5(CNC5)C4)cc3c2)n1` [Compound 894, 2-(2,6-diazaspiro[3.3]heptan-2-yl)ethyl 6-(5-(6-methylpyridin-2-yl)-1H-imidazol-4-yl)quinoline-3-carboxylate], for which the Ki in experiment [1] is 0.398 to 3.16 nM. For the same molecule, the IC50 in experiment [2] is 200 to 1260 nM.

As to `Cc1nc(-c2nc3ccccn3c2-c2ccc3ncc(-c4cnc5n4CCNC5)cc3n2)ccc1F` [Compound 560, 2-[2-(5-fluoro-6-methyl-2-pyridyl)imidazo[1,2-a]pyridin-3-yl]-7-(5,6,7,8-tetrahydroimidazo[1,2-a]pyrazin-3-yl)-1,5-naphthyridine], the Ki in experiment [1] is 0.0398 to 0.316 nM. Moreover, in experiment [2], the IC50 was 25.1 to 158 nM.

For `Cc1cccc(-c2[nH]cnc2-c2ccc3ncc(-c4cccc5c4CNC5)cc3c2)n1` [Compound 636, 3-isoindolin-4-yl-6-[5-(6-methyl-2-pyridyl)-1H-imidazol-4-yl]quinoline], the Ki in experiment [1] is 0.0398 to 0.316 nM. In experiment [2], the IC50 was 25.1 to 158 nM.

Consider `Cc1nc(-c2n[nH]cc2-c2ccc3ncc(-c4ccc5c(n4)CCNC5)cc3n2)ccc1F` [Compound 34, 2-[3-(5-fluoro-6-methyl-2-pyridyl)-1H-pyrazol-4-yl]-7-(5,6,7,8-tetrahydro-1,6-naphthyridin-2-yl)-1,5-naphthyridine], for which, in experiment [1], the Ki was less than 0.0316 nM. The IC50 in experiment [2] was 25.1 to 158 nM.

As for `Cc1cccc(-c2[nH]cnc2-c2ccc3ncc(-c4csc(C(=O)OCCN5CC[C@@H](N)C5)c4)cc3c2)n1` [Compound 1220, 2-[(3R)-3-aminopyrrolidin-1-yl]ethyl 4-[6-[5-(6-methyl-2-pyridyl)-1H-imidazol-4-yl]-3-quinolyl]thiophene-2-carboxylate], in experiment [1], the Ki was 0.0398 to 0.316 nM. The IC50 in experiment [2] was 25.1 to 158 nM.

Turning to `Cc1cccc(-c2[nH]cnc2-c2ccc3ncc(-c4cccc(C(=O)O[C@@H]5CCNC5)c4)cc3c2)n1` [Compound 736, [(3R)-pyrrolidin-3-yl] 3-[6-[5-(6-methyl-2-pyridyl)-1H-imidazol-4-yl]-3-quinolyl]benzoate], the Ki in experiment [1] is 0.0398 to 0.316 nM. In addition, in experiment [2], the IC50 was 25.1 to 158 nM.

For the molecule `Cc1cccc(-c2n[nH]cc2-c2ccc3nccc(N4CCC(N(C)C)C4)c3c2)n1` (racemic) [Compound 867, rac-(3S)-N,N-dimethyl-1-[6-[3-(6-methyl-2-pyridyl)-1H-pyrazol-4-yl]-4-quinolyl]pyrrolidin-3-amine], in experiment [1], the Ki was 0.398 to 3.16 nM. Besides, the IC50 in experiment [2] was 200 to 1260 nM.

As for `Cc1nc(-c2n[nH]cc2-c2ccc3ncc(N4CCNCC4)cc3n2)ccc1F` [Compound 661, 2-[3-(5-fluoro-6-methyl-2-pyridyl)-1H-pyrazol-4-yl]-7-piperazin-1-yl-1,5-naphthyridine], the Ki in experiment [1] is 0.0398 to 0.316 nM. In addition, the IC50 in experiment [2] is less than 20 nM.

In the case of `Cc1cccc(-c2[nH]ncc2-c2ccc3ncc(C(=O)O[C@H]4CCNC4)cc3c2)n1` [Compound 1218, [(3S)-pyrrolidin-3-yl]6-[5-(6-methyl-2-pyridyl)-1H-pyrazol-4-yl]quinoline-3-carboxylate], the Ki in experiment [1] is 0.0398 to 0.316 nM. In addition, the IC50 in experiment [2] was 25.1 to 158 nM.

Regarding `Cc1cccc(-c2n[nH]cc2-c2ccc3ncc(NCC4CCCCN4)cc3n2)n1` (centres unmarked) [Compound 375, 6-[3-(6-methyl-2-pyridyl)-1H-pyrazol-4-yl]-N-(2-piperidylmethyl)-1,5-naphthyridin-3-amine], the Ki in experiment [1] is 0.0398 to 0.316 nM. In addition, in experiment [2], the IC50 is 25.1 to 158 nM.
